Results: paper PMC9848287, “Novel thiazolone-benzenesulphonamide inhibitors of human and bacterial carbonic anhydrases” (Journal of Enzyme Inhibition and Medicinal Chemistry, 2023)

Columns and labels:
Test in all cases: stopped-flow CO2 hydrase assay
hCA II = biological target: T1, hCA II (Homo sapiens, UniProt P00918); format: biochemical
T1 construct: gene CA2; recombinant, obtained in-house
Excerpt: stopped-flow CO2 hydrase assay on hCA II

MscCAβ = biological target: T2, MscCAβ (Mammaliicoccus sciuri, UniProt A0AAJ4SIE8); format: biochemical; conditions: CO2 hydration, […] TRIS pH […] Na2SO4, […] min preincubation at room temperature
T2 construct: gene OWO77_14055; recombinant, obtained in-house
T2 sequence (A0AAJ4SIE8 1-189): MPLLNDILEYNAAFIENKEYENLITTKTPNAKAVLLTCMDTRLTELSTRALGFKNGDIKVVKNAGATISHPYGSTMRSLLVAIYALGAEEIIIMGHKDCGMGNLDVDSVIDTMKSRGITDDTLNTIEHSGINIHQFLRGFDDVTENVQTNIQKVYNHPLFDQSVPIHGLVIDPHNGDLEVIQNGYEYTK

hCA VII = biological target: T3, hCA VII (Homo sapiens, UniProt P43166); format: biochemical
T3 construct: gene CA7; recombinant, obtained in-house
Excerpt: stopped-flow CO2 hydrase assay on hCA VII

StCA2 = biological target: T4, StCA2 (Salmonella enterica, UniProt O30898); format: biochemical; conditions: CO2 hydration, […] TRIS pH […] Na2SO4, […] min preincubation at room temperature
T4 construct: gene mig-5; recombinant, obtained in-house
T4 sequence (O30898 41-246): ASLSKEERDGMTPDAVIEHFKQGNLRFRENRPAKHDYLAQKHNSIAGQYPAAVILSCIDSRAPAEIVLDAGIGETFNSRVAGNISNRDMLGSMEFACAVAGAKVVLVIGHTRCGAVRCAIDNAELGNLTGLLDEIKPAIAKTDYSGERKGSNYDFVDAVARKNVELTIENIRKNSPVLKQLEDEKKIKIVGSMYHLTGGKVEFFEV

StCA1 = biological target: T5, StCA1; format: biochemical, Salmonella enterica subsp. enterica serovar Typhimurium; conditions: CO2 hydration, […] TRIS pH […] Na2SO4, […] min preincubation at room temperature
T5 construct: recombinant, obtained in-house

hCA I = biological target: T6, hCA I (Homo sapiens, UniProt P00915); format: biochemical
T6 construct: gene CA1; recombinant, obtained in-house
Excerpt: stopped-flow CO2 hydrase assay on hCA I

T3 sequence (P43166 whole entry): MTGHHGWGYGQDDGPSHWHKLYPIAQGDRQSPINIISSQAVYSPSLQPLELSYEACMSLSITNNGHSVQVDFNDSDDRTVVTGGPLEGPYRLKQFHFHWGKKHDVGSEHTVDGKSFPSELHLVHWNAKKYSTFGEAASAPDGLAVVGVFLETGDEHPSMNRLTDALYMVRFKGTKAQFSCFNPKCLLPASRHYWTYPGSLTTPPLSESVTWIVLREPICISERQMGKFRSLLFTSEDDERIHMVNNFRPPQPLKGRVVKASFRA
T6 sequence (P00915 2-261): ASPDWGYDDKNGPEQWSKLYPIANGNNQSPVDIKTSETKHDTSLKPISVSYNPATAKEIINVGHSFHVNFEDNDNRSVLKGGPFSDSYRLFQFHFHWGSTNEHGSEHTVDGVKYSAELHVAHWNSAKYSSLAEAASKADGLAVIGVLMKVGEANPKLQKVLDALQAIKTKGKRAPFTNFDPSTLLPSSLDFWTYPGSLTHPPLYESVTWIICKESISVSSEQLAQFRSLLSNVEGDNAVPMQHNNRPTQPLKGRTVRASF

CC1SC(Nc2ccc(S(N)(=O)=O)cc2)=NC1=O (racemic) [4b, 4-((5-Methyl-4-oxo-4,5-dihydrothiazol-2-yl)amino)benzenesulphonamide]
Ki (hCA II): 4.3 nM
Ki (MscCAβ): 481 nM
Ki (hCA VII): 0.9 nM
Ki (StCA2): 538 nM
Ki (StCA1): 89.9 nM
Ki (hCA I): 31.5 nM

CCC1SC(Nc2ccc(S(N)(=O)=O)cc2)=NC1=O (racemic) [4c, 4-((5-Ethyl-4-oxo-4,5-dihydrothiazol-2-yl)amino)benzenesulphonamide]
Ki (hCA II): 3.8 nM
Ki (MscCAβ): 411 nM
Ki (hCA VII): 1.2 nM
Ki (StCA2): 481 nM
Ki (StCA1): 86.1 nM
Ki (hCA I): 66.6 nM

CCCC1SC(Nc2ccc(S(N)(=O)=O)cc2)=NC1=O (racemic) [4d, 4-((4-Oxo-5-propyl-4,5-dihydrothiazol-2-yl)amino)benzenesulphonamide]
Ki (hCA II): 2.3 nM
Ki (MscCAβ): 73.6 nM
Ki (hCA VII): 2 nM
Ki (StCA2): 913 nM
Ki (StCA1): 83.3 nM
Ki (hCA I): 70.7 nM

CC(C)C1SC(Nc2ccc(S(N)(=O)=O)cc2)=NC1=O (racemic) [4e, 4-((5-Isopropyl-4-oxo-4,5-dihydrothiazol-2-yl)amino)benzenesulphonamide]
Ki (hCA II): 7.3 nM
Ki (MscCAβ): 701 nM
Ki (hCA VII): 7.5 nM
Ki (StCA2): 867 nM
Ki (StCA1): 81.1 nM
Ki (hCA I): 85.4 nM

CCCCC1SC(Nc2ccc(S(N)(=O)=O)cc2)=NC1=O (racemic) [4f, 4-((5-Butyl-4-oxo-4,5-dihydrothiazol-2-yl)amino)benzenesulphonamide]
Ki (hCA II): 3.2 nM
Ki (MscCAβ): 2420 nM
Ki (hCA VII): 6.2 nM
Ki (StCA2): 904 nM
Ki (StCA1): 72.4 nM
Ki (hCA I): 75 nM

CCCCCCC1SC(Nc2ccc(S(N)(=O)=O)cc2)=NC1=O (racemic) [4g, 4-((5-Hexyl-4-oxo-4,5-dihydrothiazol-2-yl)amino)benzenesulphonamide]
Ki (hCA II): 13.7 nM
Ki (MscCAβ): 4030 nM
Ki (hCA VII): 14.6 nM
Ki (StCA2): 4880 nM
Ki (StCA1): 83.6 nM
Ki (hCA I): 637 nM

NS(=O)(=O)c1ccc(NC2=NC(=O)C(c3ccccc3)S2)cc1 (racemic) [4h, 4-((4-Oxo-5-phenyl-4,5-dihydrothiazol-2-yl)amino)benzenesulphonamide]
Ki (hCA II): 1.3 nM
Ki (MscCAβ): 1060 nM
Ki (hCA VII): 7.3 nM
Ki (StCA2): 797 nM
Ki (StCA1): 163 nM
Ki (hCA I): 90.4 nM

NS(=O)(=O)c1ccc(NC2=NC(=O)C(CCBr)S2)cc1 (racemic) [4i, 4-((5-(2-Bromoethyl)-4-oxo-4,5-dihydrothiazol-2-yl)amino)benzenesulphonamide]
Ki (hCA II): 2.2 nM
Ki (MscCAβ): 925 nM
Ki (hCA VII): 2.1 nM
Ki (StCA2): 515 nM
Ki (StCA1): 69.2 nM
Ki (hCA I): 74.6 nM

NS(=O)(=O)c1ccc(NC2=NC(=O)C(F)S2)cc1 (racemic) [4j, 4-((5-Fluoro-4-oxo-4,5-dihydrothiazol-2-yl)amino)benzenesulphonamide]
Ki (hCA II): 3.7 nM
Ki (MscCAβ): 849 nM
Ki (hCA VII): 1.9 nM
Ki (StCA2): 956 nM
Ki (StCA1): 90.9 nM
Ki (hCA I): 138 nM

NS(=O)(=O)c1ccc(NC2=NC(=O)CS2)cc1 [4a, 4-((4-Oxo-4,5-dihydrothiazol-2-yl)amino)benzenesulphonamide]
Ki (MscCAβ): 787 nM
Ki (hCA VII): 1.4 nM
Ki (StCA2): 275 nM
Ki (StCA1): 82.4 nM
